Source: publication PMC4933242, “Low or No Inhibitory Potency of the Canonical Galectin Carbohydrate-binding Site by Pectins and Galactomannans*” (The Journal of Biological Chemistry, 2016)
Where two headings read alike, the source gives them in different places.

B1: asialofetuin (natural protein, UniProt P12763 19-359, looked up)
chain: IPLDPVAGYKEPACDDPDTEQAALAAVDYINKHLPRGYKHTLNQIDSVKVWPRRPTGEVYDIEIDTLETTCHVLDPTPLANCSVRQQTQHAVEGDCDIHVLKQDGQFSVLFTKCDSSPDSAEDVRKLCPDCPLLAPLNDSRVVHAVEVALATFNAESNGSYLQLVEISRAQFVPLPVSVSVEFAVAATDCIAKEVVDPTKCNLLAEKQYGFCKGSVIQKALGGEDVRVTCTLFQTQPVIPQPQPDGAEAEAPSAVPDAAGPTPSAAGPPVASVVVGPSVVAVPLPLHRAHYDLRHTFSGVASVESSSGEAFHVGKTPIVGQPSIPGGPVRLCPGRIRYFKI
notes: asialofetuin (ASF), a glycoprotein; Desialylated fetuin; also called ASF

Tests used:
[1] = target: T1, galectin-9N (Homo sapiens, UniProt O00182); assay: Fluorescence anisotropy assay, galectin-9N; assay type: binding; details: about 1 μM galectin, 0.1 or 0.02 μM probe; NI = no inhibition at highest concentration tested; read-out: Calculated Kd, Gal-9N
T1 construct: the N-terminal CRD of galectin-9 (galectin-9N)
Method: (§1) FA was used to analyze interactions of probes and ligands with galectins in solution, as described before ([41][–][44]). A PheraStarFS plate reader, with software PHERAstar Mars version 2.10 R3 (BMG, Offenburg, Germany), was used, and FA of fluorescein-tagged saccharide probes was measured with excitation at 485 nm and emission at 520 nm.
(§2) The anisotropy (A) is given in units of mA, where the theoretical maximum is 400, and the value for free fluorescein typically 23. All conditions were measured in at least two duplicate wells.
(§3) In this study, the effect of inhibitors of the saccharide probe/galectin interaction was tested in two ways. In the first, a fixed low concentration of fluorescein-tagged probe (0.1 μM) and galectin were mixed with a range of concentrations of inhibitor. An optimal probe was chosen for each galectin to permit use of as low as possible concentration of galectin, while still achieving a sufficient rise in anisotropy for a reliable measuring range ([42][–][44]). […] With structurally defined inhibitors (pure synthetic galacto-oligosaccharides, small galactomannans, and reference ligands) the molecular mass, molar concentrations, and number of binding sites (in this case one binding site per ligand) were known and their dissociation constants (Kd) could therefore be directly calculated, using the data from the FA assay as described in Sörme et al. ([41]). […] Even if the molar concentration of the inhibitor is not known, the anisotropy value at a given condition permits calculation of the molar concentration of free galectin, as described below, and from this what fraction of the galectin is bound by a given mass per volume concentration of inhibitor. From this, the ratio of the molar concentration of the free inhibitor binding sites to their Kd value can be calculated, even if the FA assay cannot distinguish between the case when this is due to a few high affinity binding sites in the polysaccharide fraction or many of low affinity.

[2] = target: T2, galectin-2 (Homo sapiens, UniProt P05162); assay: Fluorescence anisotropy assay, galectin-2; assay type: binding; details: about 1 μM galectin, 0.1 or 0.02 μM probe; NI = no inhibition at highest concentration tested; read-out: Calculated Kd, Gal-2
T2 sequence (P05162 1-132): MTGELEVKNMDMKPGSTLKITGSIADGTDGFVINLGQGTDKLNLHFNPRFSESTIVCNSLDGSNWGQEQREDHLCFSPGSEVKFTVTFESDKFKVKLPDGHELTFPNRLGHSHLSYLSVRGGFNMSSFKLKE
Method: as §1, §2
(§4) In this study, the effect of inhibitors of the saccharide probe/galectin interaction was tested in two ways. […] With structurally defined inhibitors (pure synthetic galacto-oligosaccharides, small galactomannans, and reference ligands) the molecular mass, molar concentrations, and number of binding sites (in this case one binding site per ligand) were known and their dissociation constants (Kd) could therefore be directly calculated, using the data from the FA assay as described in Sörme et al. ([41]). […] From this, the ratio of the molar concentration of the free inhibitor binding sites to their Kd value can be calculated, even if the FA assay cannot distinguish between the case when this is due to a few high affinity binding sites in the polysaccharide fraction or many of low affinity.

[3] = target: T3, galectin-3 (Homo sapiens, UniProt P17931); assay: Fluorescence anisotropy assay, galectin-3; assay type: binding; details: about 1 μM galectin, 0.1 or 0.02 μM probe; NI = no inhibition at highest concentration tested; read-out: Calculated Kd, Gal-3
Method: as §1, §2, §3

[4] = target: T4, Gal-4C (Homo sapiens, UniProt P56470); assay: Fluorescence anisotropy assay, galectin-4C; assay type: binding; details: about 1 μM galectin, 0.1 or 0.02 μM probe; NI = no inhibition at highest concentration tested; read-out: Calculated Kd, Gal-4C
T4 construct: Gal-4C
T4 sequence (P56470 194-323 limits assumed): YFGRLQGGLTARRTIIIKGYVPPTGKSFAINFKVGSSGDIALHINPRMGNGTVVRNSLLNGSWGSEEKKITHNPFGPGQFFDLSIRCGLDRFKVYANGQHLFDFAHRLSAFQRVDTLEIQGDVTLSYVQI
Method: as §1, §2, §3

[5] = target: T5, Gal-4N (Homo sapiens, UniProt P56470); assay: Fluorescence anisotropy assay, galectin-4N; assay type: binding; details: about 1 μM galectin, 0.1 or 0.02 μM probe; NI = no inhibition at highest concentration tested; read-out: Calculated Kd, Gal-4N
T5 construct: Gal-4N
T5 sequence (P56470 19-150 limits assumed): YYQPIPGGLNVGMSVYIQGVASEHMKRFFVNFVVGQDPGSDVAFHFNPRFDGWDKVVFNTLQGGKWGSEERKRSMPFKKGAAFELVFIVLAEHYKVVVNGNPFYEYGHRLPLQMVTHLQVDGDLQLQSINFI
Method: as §1, §2, §4

[6] = target: T6, galectin-8N (Homo sapiens, UniProt O00214); assay: Fluorescence anisotropy assay, galectin-8N; assay type: binding; details: about 1 μM galectin, 0.1 or 0.02 μM probe; read-out: Calculated Kd, Gal-8N
T6 construct: the N-terminal CRD of galectin-8 (galectin-8N)
T6 sequence (O00214 19-152 limits assumed): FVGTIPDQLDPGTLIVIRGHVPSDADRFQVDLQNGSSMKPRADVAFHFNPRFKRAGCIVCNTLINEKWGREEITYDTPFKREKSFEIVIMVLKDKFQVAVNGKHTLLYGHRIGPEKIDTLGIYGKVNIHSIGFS
Method: as §1, §2, §4

[7] = target: galectin-1 (Homo sapiens, UniProt P09382); assay: Fluorescence anisotropy assay, inhibition of probe binding to galectin-1; details: for Kd: about 1 μM galectin, 0.1 or 0.02 μM probe, 4 mM β-mercaptoethanol, NI = no inhibition at highest concentration tested, read-out: Calculated Kd, Gal-1
Method: as §1, §2, §3

[8] = target: T7, Gal-9C (Homo sapiens, UniProt O00182); assay: Fluorescence anisotropy assay, galectin-9C; assay type: binding; details: about 1 μM galectin, 0.1 or 0.02 μM probe; read-out: Calculated Kd, Gal-9C
T7 construct: Gal-9C
Method: as §1, §2, §3

[9] = target: T3, galectin-3; details: given as example of low affinity; no reference given; read-out: Kd for galectin-3 canonical carbohydrate-binding site; cited from earlier work
[10] = target: Gal-3 R186S (Homo sapiens, UniProt P17931, R186S); assay: Fluorescence anisotropy assay, galectin-3 R186S mutant; assay type: binding; details: about 1 μM galectin, 0.1 or 0.02 μM probe; read-out: Calculated Kd, Gal-3 R186S
Method: as §1, §2, §4

[11] = target: T8, galectin-1 wild type (UniProt P09382 1-135); assay: fluorescence polarisation; fluorescence anisotropy competition in solution; galectin-1 WT 0.5 uM, tdga saccharide probe 0.1 uM, increasing concentrations of ASF in the presence of the peptide Anginex, with or without beta-mercaptoethanol; details: both partners purified
T8 construct: galectin-1, wild type; also called Gal-1; galectin-1 WT; source: called purified galectins in the discussion
T8 sequence (P09382 whole entry): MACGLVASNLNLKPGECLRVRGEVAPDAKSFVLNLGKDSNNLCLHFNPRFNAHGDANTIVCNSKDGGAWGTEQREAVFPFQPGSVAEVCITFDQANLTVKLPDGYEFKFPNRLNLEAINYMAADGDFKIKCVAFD

T1 sequence (O00182 17-148 limits assumed): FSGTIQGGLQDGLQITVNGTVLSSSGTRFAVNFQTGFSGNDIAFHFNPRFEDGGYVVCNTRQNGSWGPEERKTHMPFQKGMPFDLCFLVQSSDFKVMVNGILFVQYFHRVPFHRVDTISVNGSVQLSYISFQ
T7 sequence (O00182 227-355 limits assumed): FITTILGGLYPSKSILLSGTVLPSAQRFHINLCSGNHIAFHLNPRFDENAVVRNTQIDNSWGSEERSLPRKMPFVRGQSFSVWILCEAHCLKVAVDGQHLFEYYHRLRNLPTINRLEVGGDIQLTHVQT
galectin-1, sequence (P09382 whole entry, species assumed): as the sequence (P09382 whole entry) above
T3 sequence (P17931 whole entry): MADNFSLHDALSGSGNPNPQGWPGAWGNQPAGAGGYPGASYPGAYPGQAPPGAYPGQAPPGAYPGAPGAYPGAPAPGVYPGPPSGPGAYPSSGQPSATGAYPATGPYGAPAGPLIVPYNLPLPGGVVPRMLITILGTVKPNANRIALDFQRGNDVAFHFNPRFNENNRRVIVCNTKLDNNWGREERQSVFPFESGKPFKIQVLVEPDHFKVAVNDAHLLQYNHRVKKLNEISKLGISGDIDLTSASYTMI
Gal-3 R186S, sequence (P17931 whole entry R186S): as the sequence (P17931 whole entry) above, with R186S counted along it

Molecule	Kd [1]	Kd [3]	Kd [7]	other results
OC1OC[C@H](O)[C@H](O)[C@H]1O (mixture of isomers) [L-Arabinose, L-arabinose, reference compound]	94000 µM			
OC[C@H]1O[C@H](OC[C@H]2OC(O)[C@@H](O)[C@@H](O)[C@@H]2O[C@@H]2O[C@H](CO)[C@@H](O[C@@H]3O[C@H](CO)[C@@H](O)[C@H](O)[C@@H]3O)[C@H](O)[C@@H]2O)[C@H](O)[C@@H](O)[C@H]1O (stereo partly drawn) [6^1-α-Galactosyl-mannotriose, 6^1-α-D-galactosyl-mannotriose]	2400 µM	3600 µM		Kd [2]: > 10000 µM; Kd [4]: > 10000 µM; Kd [5]: > 10000 µM; Kd [6]: 7400 µM
OC[C@H]1O[C@H](OC[C@H]2O[C@@H](O[C@H]3[C@H](O)[C@H](O)[C@H](O[C@H]4[C@H](O)[C@H](O)[C@H](O[C@H]5[C@H](O)[C@H](O)C(O)O[C@@H]5CO)O[C@@H]4CO)O[C@@H]3CO[C@H]3O[C@H](CO)[C@H](O)[C@H](O)[C@H]3O)[C@@H](O)[C@@H](O)[C@@H]2O[C@@H]2O[C@H](CO)[C@@H](O)[C@H](O)[C@@H]2O)[C@H](O)[C@@H](O)[C@H]1O (stereo partly drawn) [6^3,6^4-α-Galactosyl-mannopentaose, 6^3,6^4-α-D-galactosyl-mannopentaose]	980 µM	1500 µM	4300 µM	Kd [2]: 8300 µM; Kd [4]: > 10000 µM; Kd [6]: 2500 µM; Kd [8]: 2000 µM
OC[C@H]1O[C@@H](OC[C@H]2OC(O)[C@H](O)[C@@H](O[C@@H]3O[C@H](CO)[C@H](O)[C@H](O)[C@H]3O)[C@H]2O)[C@H](O)[C@@H](O)[C@H]1O (stereo partly shown) [Branched Galβ1–6(Galβ1–3)Gal, Galβ1–6(Galβ1–3)Gal]	100 µM	130 µM	1300 µM	
OC[C@H]1O[C@@H](OC[C@H]2O[C@@H](OC[C@H]3OC(O)[C@H](O)[C@@H](O)[C@H]3O)[C@H](O)[C@@H](O[C@@H]3O[C@H](CO)[C@H](O)[C@H](O)[C@H]3O)[C@H]2O)[C@H](O)[C@@H](O)[C@H]1O (stereo partly shown) [Branched Galβ1–6(Galβ1–3)Galβ1–6Gal, Galβ1–6(Galβ1–3)Galβ1–6Gal]	51 µM	80 µM	800 µM	
O=C[C@H](O)[C@@H](O)[C@@H](O)[C@H](O)CO [Gal, galactose]				Kd [9]: ~5000 µM
OC[C@H]1O[C@@H](O[C@H]2[C@@H](O)[C@@H](CO)OC(O)[C@@H]2O)[C@H](O)[C@@H](O)[C@H]1O (stereo partly shown) [Galβ1–3Gal]	150 µM	180 µM		
OC[C@H]1O[C@@H](O[C@H]2[C@@H](O)[C@@H](CO)O[C@@H](OC[C@H]3OC(O)[C@H](O)[C@@H](O)[C@H]3O)[C@@H]2O)[C@H](O)[C@@H](O)[C@H]1O (stereo partly shown) [Galβ1–3Galβ1–6Gal]	68 µM	110 µM	1200 µM	
OC[C@H]1O[C@@H](O[C@@H]2[C@H](O)[C@@H](O)C(O)O[C@@H]2CO)[C@H](O)[C@@H](O)[C@H]1O (stereo partly shown) [Galβ1–4Gal]	1200 µM			
OC[C@H]1O[C@@H](OC[C@H]2OC(O)[C@H](O)[C@@H](O)[C@H]2O)[C@H](O)[C@@H](O)[C@H]1O (stereo partly shown) [Galβ1–6Gal]	> 2000 µM		> 2000 µM	
OC[C@H]1O[C@@H](OC[C@H]2O[C@@H](OC[C@H]3OC(O)[C@H](O)[C@@H](O)[C@H]3O)[C@H](O)[C@@H](O)[C@H]2O)[C@H](O)[C@@H](O)[C@H]1O (stereo partly shown) [Galβ1–6Galβ1–6Gal]	> 2000 µM	> 2000 µM	> 2000 µM	
COC1OC(CO)C(O)C(O)C1O (stereo not drawn) [Methyl β-Gal, reference compound]	4000 µM			Kd [8]: 8600 µM
CO[C@@H]1O[C@H](CO)[C@@H](O[C@@H]2O[C@H](CO)[C@H](O)[C@H](O)[C@H]2O)[C@H](O)[C@H]1O [Methyl β-Lac, reference compound]		110 µM	170 µM	Kd [10]: 290 µM; Kd [4]: 2900 µM; Kd [5]: 2600 µM; Kd [8]: 190 µM
CO[C@@H]1O[C@H](CO)[C@@H](O[C@@H]2O[C@H](CO)[C@H](O)[C@H](O)[C@H]2O)[C@H](O)[C@H]1NC(C)=O [Methyl β-LacNAc, reference compound]		52 µM	84 µM	Kd [10]: 1200 µM
Anginex [reference compound]				influence on galectin-1 interaction with Davanat® ([7]; galectin-1 0.5 μM, tdga probe 0.1 μM, Fig. 7E): no influence; potentiation of the inhibition of galectin-1 by ASF (factor) ([7]; with or without β-mercaptoethanol, Fig. 7F): about 500
B1				fold potentiation by Anginex of the inhibition of galectin-1/probe binding by ASF [11]: ~500 fold
